Here are results for 2 compounds from ChEMBL document CHEMBL4387706, “Discovery of Novel Spiroindoline Derivatives as Selective Tankyrase Inhibitors” (J Med Chem, 2019).

SMILES strings stand for the structures. In brackets after ≈: the same amount, converted by molar mass. Activity calls are given as the source filed them. No cut-off for these calls is given here.

Series [1] is described as follows: physchem. The following applies: phosphate buffer, pH 7.4.
A short description of series [2]: Permeability of the compound by PAMPA. It counts as ADME. Conditions: read-out: permeability. On the technique in general: In PAMPA a lipid-coated filter parts donor from acceptor wells.
For series [3], the target named is Cav1.2 (voltage-dependent L-type calcium channel subunit alpha-1C) (Rattus norvegicus, UniProt P22002). As to the kind of experiment: Displacement of [3H]nitrendipine from Cav1.2 in Wistar rat cerebral cortex at 10 uM measured after 90 mins by scintillation counting method relative to control. Conditions: probe [3H]nitrendipine.
Series [4] concerns the target T1, Tankyrase 1/2 (Homo sapiens) (UniProt Q9H2K2+O95271). As to the kind of experiment: Inhibition of TNKS/TNKS2-mediated beta-catenin signaling in human COLO320DM cells assessed as down regulation of AXIN2 mRNA expression at 0.033 to 1 uM measured after 48 hrs by RT-PCR analysis. The format is cell-based.
Series [5] concerns the target T1, Tankyrase 1/2 (Homo sapiens). Kind of series: Inhibition of TNKS/TNKS2 in human COLO320DM cells assessed as upregulation of AXIN2 expression at 0.1 uM measured after 16 hrs by Western blot analysis relative to G007-LK. It counts as cell-based. On the technique in general: Immunoblotting shows a protein as a band on a membrane.
Series [6] concerns the target Muscarinic acetylcholine receptor M3 (Homo sapiens) (UniProt P20309). Kind of series: Displacement of [3H]N-Methylscopolamine from full-length recombinant human M3 receptor expressed in CHOK1 cells at 10 uM measured after 120 mins by scintillation counting method relative to control. The format is cell-based.
The species entered for series [7] is Rattus norvegicus. As to the kind of experiment: Displacement of [3H]batrachotoxinin from Wistar rat brain sodium channel site 2 at 10 uM after 60 mins by scintillation counting analysis relative to control.
The target in series [8] is Beta-2 adrenergic receptor (Homo sapiens) (UniProt P07550). Kind of series: Displacement of [3H]CGP-12177 from full-length recombinant human beta2 receptor expressed in CHO cells co-expressing NBR1 at 10 uM measured after 120 mins by scintillation counting method relative to control. The format is cell-based. Background: Displacement assays read how much labelled ligand stays bound in the presence of the test substance.
Sequence of Beta-2 adrenergic receptor (Homo sapiens) (P07550 whole entry, looked up): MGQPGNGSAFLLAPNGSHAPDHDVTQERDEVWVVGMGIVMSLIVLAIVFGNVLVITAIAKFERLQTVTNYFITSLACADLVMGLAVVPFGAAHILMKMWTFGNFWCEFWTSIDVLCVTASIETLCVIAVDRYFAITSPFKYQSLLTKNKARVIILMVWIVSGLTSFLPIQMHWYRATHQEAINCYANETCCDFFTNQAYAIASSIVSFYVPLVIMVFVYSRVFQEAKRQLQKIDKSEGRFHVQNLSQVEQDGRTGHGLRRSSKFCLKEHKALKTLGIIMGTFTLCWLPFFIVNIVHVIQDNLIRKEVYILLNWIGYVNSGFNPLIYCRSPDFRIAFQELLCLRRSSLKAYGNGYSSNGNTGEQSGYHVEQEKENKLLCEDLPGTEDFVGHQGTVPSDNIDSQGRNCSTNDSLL

Series [9] deals with Alpha-2A adrenergic receptor (Homo sapiens) (UniProt P08913). Kind of series: Displacement of [3H]rauwolscine from full-length recombinant human alpha2A receptor expressed in CHOK1 cells at 10 uM measured after 60 mins by scintillation counting method relative to control. It counts as cell-based.
The nature of series [10]: Half life in ICR mouse at 50 mg/kg, ip. It counts as ADME, organism-based. Conditions: in vivo.
Series [11] has as its target GABA-A receptor; anion channel (Rattus norvegicus) (UniProt O09028+P15431+P18506+P18508+P19969+P20236+P23574+P23576+P28471+P28473+P30191+P62813+P63079+P63138+Q91ZM7+Q9ES14). As to the kind of experiment: Displacement of [3H]flunitrazepam from GABAA receptor in Wistar rat brain at 10 uM measured after 60 mins by scintillation counting method relative to control. The format is tissue-based.

Series [12] has as its target Vasopressin V1a receptor (Homo sapiens) (UniProt P37288). Kind of series: Displacement of [125I]Phenylacetyl-D-Tyr(Me)-Phe-Gln-Asn-Arg-Pro-Arg-Tyr-NH2 from full-length recombinant human V1A receptor expressed in HEK293 cells at 10 uM measured after 120 mins by scintillation counting method relative to control. It counts as cell-based.
Series [13] addresses Sodium-dependent serotonin transporter (Homo sapiens) (UniProt P31645). Kind of series: Displacement of [3H]paroxetine from full-length recombinant human SET receptor expressed in HEK293 cells at 10 uM measured after 60 mins by scintillation counting method relative to control. It counts as cell-based.
Series [14] addresses Glucocorticoid receptor (Homo sapiens) (UniProt P04150). As to the kind of experiment: Displacement of [3H]dexamethasone from full-length recombinant human glucocorticoid receptor expressed in insect cells at 10 uM measured after 24 hrs by scintillation counting method relative to control.
For series [15], the target named is Endothelin-1 receptor (Homo sapiens) (UniProt P25101). Kind of series: Displacement of [125I]Endothelin1 from full-length recombinant human ETA receptor expressed in CHOK1 cells at 10 uM measured after 120 mins by scintillation counting method relative to control. It counts as cell-based.
Series [16] has as its target Prostaglandin G/H synthase 2 (Homo sapiens) (UniProt P35354). Kind of series: Inhibition of human recombinant COX2 expressed in Sf21 cells at 10 uM using arachidonic acid as substrate preincubated for 15 mins followed by substrate addition and measured after 3 mins by ampliflu red dye-based spectrofluorimetric method relative to control.
In series [17] the target is Delta-type opioid receptor (Homo sapiens) (UniProt P41143). Kind of series: Displacement of [3H]naltrindole from full-length recombinant human DOR expressed in HEK293 cells at 10 uM measured after 60 mins by scintillation counting method relative to control. It counts as cell-based.
In series [18] the target is Glutamate NMDA receptor (Rattus norvegicus) (UniProt P35439+Q00959+Q00960+Q00961+Q62645+Q8VHN2+Q9R1M7). As to the kind of experiment: Displacement of [3H]CGP-39653 from NMDA receptor in Wistar rat cerebral cortex at 10 uM measured after 20 mins by scintillation counting method relative to control.
Series [19] concerns the target cGMP-inhibited 3',5'-cyclic phosphodiesterase 3A (Homo sapiens) (UniProt Q14432). As to the kind of experiment: Inhibition of full-length recombinant human PDE3A at 10 uM using FAM-cAMP as substrate measured after 30 mins by spectrofluorimetric method relative to control.
The target of series [20] is Androgen receptor (Homo sapiens) (UniProt P10275). Kind of series: Displacement of [3H]Methyltrienolone from human LNCAP cells-derived androgen receptor at 10 uM measured after 20 hrs by scintillation counting method relative to control. It counts as cell-based.
Series [21] has as its target Neuronal acetylcholine receptor; alpha4/beta2 (Homo sapiens) (UniProt P17787+P43681). As to the kind of experiment: Displacement of [3H]cytisine from full-length recombinant human alpha4/beta2 nACHR expressed in human SH-SY5Y cells at 10 uM measured after 120 mins by scintillation counting method relative to control. The format is cell-based.
The species entered for series [22] is Homo sapiens. Kind of series: Effect on hippo signaling protein in human COLO320DM cells assessed as change in AMOTL2 expression at 0.033 to 1 uM measured after 48 hrs by RT-PCR analysis. It counts as cell-based.
For series [23], the target named is MAOA (Homo sapiens, UniProt P21397). As to the kind of experiment: Inhibition of full-length recombinant human MAOA expressed in insect cells at 10 uM using kynuramine as substrate preincubated for 15 mins followed by substrate addition and measured after 60 mins by spectrofluorimetric method relative to control. The following applies: probe kynuramine.
The target of series [24] is Cholecystokinin receptor type A (Homo sapiens) (UniProt P32238). Kind of series: Displacement of [125I]CCK8 from full-length recombinant human CCK1 receptor expressed in human 1321N1 cells at 10 uM measured after 3 hrs by scintillation counting method relative to control. The format is cell-based.
In series [25] the target is 5-hydroxytryptamine receptor 1A (Homo sapiens) (UniProt P08908). Kind of series: Displacement of [3H]8-OH-DPAT from full-length recombinant human 5HT1A receptor expressed in CHOK1 cells at 10 uM measured after 60 mins by scintillation counting method relative to control. It counts as cell-based.
The subject of series [26] is RKO. Kind of series: Antiproliferative activity against human RKO cells assessed reduction in cell viability at 0.3 uM measured after 5 days by MTT assay. It counts as functional, cell-based.
Series [27] has as its target 5-hydroxytryptamine receptor 2A (Homo sapiens) (UniProt P28223). As to the kind of experiment: Displacement of [3H]ketanserin from full-length recombinant human 5HT2A receptor expressed in CHOK1 cells at 10 uM measured after 60 mins by scintillation counting method relative to control. The format is cell-based.

T1 sequence (O95271 whole entry, looked up): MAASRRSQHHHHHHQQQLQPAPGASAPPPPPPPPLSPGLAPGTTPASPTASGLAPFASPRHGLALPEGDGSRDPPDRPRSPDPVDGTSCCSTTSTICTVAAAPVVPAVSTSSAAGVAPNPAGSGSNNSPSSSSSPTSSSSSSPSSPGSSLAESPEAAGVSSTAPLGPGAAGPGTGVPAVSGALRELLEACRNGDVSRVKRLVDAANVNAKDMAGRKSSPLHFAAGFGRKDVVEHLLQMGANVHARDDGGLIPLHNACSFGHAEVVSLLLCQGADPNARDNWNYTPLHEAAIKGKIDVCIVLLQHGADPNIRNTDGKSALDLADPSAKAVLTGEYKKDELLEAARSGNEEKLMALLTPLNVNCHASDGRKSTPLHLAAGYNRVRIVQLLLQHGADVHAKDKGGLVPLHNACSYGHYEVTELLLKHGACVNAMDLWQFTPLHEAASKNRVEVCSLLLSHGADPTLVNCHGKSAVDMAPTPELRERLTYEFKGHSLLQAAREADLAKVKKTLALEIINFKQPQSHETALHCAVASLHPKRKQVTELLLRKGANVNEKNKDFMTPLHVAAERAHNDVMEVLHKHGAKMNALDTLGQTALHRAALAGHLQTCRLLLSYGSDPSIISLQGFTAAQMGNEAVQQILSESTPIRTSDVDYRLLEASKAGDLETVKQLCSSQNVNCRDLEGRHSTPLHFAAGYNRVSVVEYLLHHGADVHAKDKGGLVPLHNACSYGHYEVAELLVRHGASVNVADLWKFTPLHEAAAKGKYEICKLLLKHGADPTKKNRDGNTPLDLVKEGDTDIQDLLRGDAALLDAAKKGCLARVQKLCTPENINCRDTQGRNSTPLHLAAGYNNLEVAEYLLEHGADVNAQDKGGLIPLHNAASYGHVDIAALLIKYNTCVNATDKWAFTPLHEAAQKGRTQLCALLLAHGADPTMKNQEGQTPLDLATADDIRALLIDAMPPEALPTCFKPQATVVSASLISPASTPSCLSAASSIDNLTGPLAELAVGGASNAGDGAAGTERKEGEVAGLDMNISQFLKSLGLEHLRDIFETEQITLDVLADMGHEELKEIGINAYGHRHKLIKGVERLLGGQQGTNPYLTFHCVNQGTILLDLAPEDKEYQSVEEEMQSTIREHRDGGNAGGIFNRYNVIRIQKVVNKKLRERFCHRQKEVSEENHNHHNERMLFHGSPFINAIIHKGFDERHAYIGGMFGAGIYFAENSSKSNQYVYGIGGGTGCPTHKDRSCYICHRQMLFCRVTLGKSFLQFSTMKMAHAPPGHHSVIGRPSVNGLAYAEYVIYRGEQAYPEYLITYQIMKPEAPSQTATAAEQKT
T1 sequence (Q9H2K2 whole entry, looked up): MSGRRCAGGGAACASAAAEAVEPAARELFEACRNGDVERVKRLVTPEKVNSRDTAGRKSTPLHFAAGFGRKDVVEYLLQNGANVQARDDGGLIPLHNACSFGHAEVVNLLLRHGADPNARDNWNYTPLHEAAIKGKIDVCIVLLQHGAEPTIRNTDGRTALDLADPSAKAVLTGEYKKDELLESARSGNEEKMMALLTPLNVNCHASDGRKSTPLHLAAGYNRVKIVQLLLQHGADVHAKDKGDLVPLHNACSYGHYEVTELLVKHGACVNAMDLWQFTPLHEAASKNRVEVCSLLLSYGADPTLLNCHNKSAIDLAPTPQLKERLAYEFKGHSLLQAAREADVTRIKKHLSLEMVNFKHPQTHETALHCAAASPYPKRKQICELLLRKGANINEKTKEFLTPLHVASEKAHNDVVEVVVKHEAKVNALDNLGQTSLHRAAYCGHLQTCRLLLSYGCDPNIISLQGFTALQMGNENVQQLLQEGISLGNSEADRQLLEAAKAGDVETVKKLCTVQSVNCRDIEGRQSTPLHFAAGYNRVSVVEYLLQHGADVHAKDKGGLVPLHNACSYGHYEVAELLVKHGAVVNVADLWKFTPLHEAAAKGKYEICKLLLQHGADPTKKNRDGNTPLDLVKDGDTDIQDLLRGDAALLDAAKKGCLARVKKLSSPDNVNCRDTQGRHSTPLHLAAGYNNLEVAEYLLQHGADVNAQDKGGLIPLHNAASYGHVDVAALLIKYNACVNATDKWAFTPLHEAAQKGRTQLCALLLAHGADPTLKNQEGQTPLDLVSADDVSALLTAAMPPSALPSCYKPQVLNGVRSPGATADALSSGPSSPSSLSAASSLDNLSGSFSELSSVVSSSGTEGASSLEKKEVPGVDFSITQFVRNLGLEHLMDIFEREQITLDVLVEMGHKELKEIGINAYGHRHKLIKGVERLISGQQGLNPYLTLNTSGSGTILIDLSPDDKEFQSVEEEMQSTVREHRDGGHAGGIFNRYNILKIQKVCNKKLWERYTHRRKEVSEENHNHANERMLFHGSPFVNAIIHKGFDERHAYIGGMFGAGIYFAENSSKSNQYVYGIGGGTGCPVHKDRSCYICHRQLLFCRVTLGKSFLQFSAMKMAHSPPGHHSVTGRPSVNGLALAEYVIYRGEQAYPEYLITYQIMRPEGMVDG
Sequence of cGMP-inhibited 3',5'-cyclic phosphodiesterase 3A (Homo sapiens) (Q14432 whole entry): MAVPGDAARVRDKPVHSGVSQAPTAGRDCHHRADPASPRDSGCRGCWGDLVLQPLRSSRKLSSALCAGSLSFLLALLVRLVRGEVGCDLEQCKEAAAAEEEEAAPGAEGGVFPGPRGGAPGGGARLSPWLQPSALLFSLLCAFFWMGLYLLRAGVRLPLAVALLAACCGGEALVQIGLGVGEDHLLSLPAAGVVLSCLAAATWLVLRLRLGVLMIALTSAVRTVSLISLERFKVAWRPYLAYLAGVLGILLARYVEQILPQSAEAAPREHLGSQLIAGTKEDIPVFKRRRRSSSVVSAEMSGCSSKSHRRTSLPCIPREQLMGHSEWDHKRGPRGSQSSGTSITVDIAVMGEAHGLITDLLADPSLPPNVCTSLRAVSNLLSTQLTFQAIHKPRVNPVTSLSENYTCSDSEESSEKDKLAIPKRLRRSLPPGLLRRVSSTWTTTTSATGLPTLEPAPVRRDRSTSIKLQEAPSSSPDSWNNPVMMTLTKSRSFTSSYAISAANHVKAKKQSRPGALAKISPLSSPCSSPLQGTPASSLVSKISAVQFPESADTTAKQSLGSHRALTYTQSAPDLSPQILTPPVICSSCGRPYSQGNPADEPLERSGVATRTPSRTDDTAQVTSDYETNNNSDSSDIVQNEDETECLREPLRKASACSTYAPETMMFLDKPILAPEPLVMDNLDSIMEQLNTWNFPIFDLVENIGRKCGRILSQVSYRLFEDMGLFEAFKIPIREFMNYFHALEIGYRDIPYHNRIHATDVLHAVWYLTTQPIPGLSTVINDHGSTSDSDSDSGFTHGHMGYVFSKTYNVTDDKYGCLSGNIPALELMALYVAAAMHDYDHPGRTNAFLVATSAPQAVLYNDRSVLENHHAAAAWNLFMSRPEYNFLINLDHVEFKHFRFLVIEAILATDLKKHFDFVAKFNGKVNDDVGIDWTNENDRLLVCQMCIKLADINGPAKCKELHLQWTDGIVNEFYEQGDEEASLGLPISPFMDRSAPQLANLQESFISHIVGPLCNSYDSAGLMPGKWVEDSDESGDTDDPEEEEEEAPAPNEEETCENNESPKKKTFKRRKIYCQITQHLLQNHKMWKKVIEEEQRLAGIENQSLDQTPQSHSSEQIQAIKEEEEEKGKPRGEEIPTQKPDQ
Sequence of Glucocorticoid receptor (Homo sapiens) (P04150 whole entry): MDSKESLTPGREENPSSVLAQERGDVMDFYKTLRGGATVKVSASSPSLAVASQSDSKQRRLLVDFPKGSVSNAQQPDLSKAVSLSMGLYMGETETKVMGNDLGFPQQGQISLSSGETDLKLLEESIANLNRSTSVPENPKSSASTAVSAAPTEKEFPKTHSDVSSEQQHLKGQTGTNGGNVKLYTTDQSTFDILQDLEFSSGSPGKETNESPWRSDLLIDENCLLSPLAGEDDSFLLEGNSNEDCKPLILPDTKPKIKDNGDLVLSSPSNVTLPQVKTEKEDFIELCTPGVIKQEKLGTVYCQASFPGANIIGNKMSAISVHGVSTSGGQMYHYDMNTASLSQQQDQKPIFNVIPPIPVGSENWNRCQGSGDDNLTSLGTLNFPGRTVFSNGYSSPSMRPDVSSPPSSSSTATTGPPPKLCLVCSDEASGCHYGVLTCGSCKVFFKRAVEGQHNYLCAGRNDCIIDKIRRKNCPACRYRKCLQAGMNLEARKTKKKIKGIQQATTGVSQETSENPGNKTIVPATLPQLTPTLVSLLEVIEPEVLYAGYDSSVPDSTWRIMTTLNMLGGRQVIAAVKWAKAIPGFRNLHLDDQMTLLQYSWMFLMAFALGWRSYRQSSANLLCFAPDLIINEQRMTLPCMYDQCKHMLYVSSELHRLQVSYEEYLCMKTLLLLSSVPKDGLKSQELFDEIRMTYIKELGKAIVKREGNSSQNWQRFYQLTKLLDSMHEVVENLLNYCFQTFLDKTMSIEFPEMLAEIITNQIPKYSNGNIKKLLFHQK

By solubility is commonly meant the concentration that dissolves in the medium under given conditions. A high value points to a readily soluble substance. As for `COc1ccccc1N1CCN(c2nc3c(c(=O)[nH]2)CCCC3)CC1`, the solubility at 1 h, 200 µM in [1] is 10 µg/mL (≈ 29.4 µM). For the same compound, the Papp in [2] turned out to be 0.34 ×10⁻⁶ cm/s.

One may read the inhibition as the relative decrease from the control value, in per cent. Usually half-life stands for the time in which the quantity being followed falls by half. For the compound `O=c1[nH]c(N2CCC3(CC2)CN(CCO)c2cc(F)cc(F)c23)nc2c1CCCC2`, in series [3], the inhibition at 1.5 h, 10 µM is more than 20%. Further, the inhibition result in series [4] is “Active”. Further, the fold change (FC) in series [5] was found to be 4.42. Also, the inhibition in series [6], in series [7], in series [8], in [9], in [11] and in [12] was more than 20% throughout. Also, the inhibition in series [13], in series [14], in series [15], in series [16], in series [17] and in series [18] was more than 20% in each case. For the same compound, the inhibition in [19], in [20], in [21], in series [24], in [25] and in [27] was more than 20% throughout. The compound also had a half-life in [10] of 2.8 h. Further, the outcome in [22] was inactive. For the same compound, in series [23], the inhibition at 1 h, 10 µM is more than 20%. The outcome in series [26] was Active.
